From patent publication US20230173135A1, “PROCESS TO COAT A MEDICAL DEVICE SURFACE WITH PEPTIDE-BASED NANOPARTICLES” (priority 2020, published 2023)

Assays:
[1] = tested on: E.coli; type: cell-based
Experimental: (§1) Bacterial resistance assay. Commercial available Acticoat® dressing from Smith & Nephew was used to study the development of bacterial resistance against Ag. Acticoat® (1 cm^2 area) was placed in water (1 mL) and kept at room temperature for 24 h in order to promote leaching of Ag ions. ICP-MS analysis of leached solution was done to quantify the amount of Ag ions. The leached Acticoat® solution (Ag^+,0.06 ug/mL; sub-minimum inhibitory concentration, sub-MIC) was used to incubate with E.coli or S.aureus suspensions (10^5 CFU/mL) for 20 h in 10% human serum (HS; v/v in PBS). Then, for antimicrobial test, 10^5 CFU/mL of bacteria from passage 1 were incubated with 0.1 ug/mL (minimum inhibitory concentration, MIC) of Acticoat® solution in 10% human serum (HS) for 6 h followed by serial dilution and plating. Plates were incubated at 37° C. for 24 h. The visible bacteria grown on plates were counted. […]
(§2) Next, the inventors evaluated whether LL37NPs induced bacterial resistance (FIG. 5). […] Acticoat® dressing was incubated in PBS for 1, 3 and 5 days followed by the quantification of silver ions using ICP-MS analysis (FIG. 11C). […]
(§3) (A) Schematic diagram showing experimental procedures being used for bacterial resistance assay. […] ICP-MS analysis was performed to quantify the amount of Ag. […]

[2] = tested on: S.aureus; type: cell-based
Experimental: as §1, §2, §3

[3] = tested on: Human keratinocyte cell line (HaCaT); assay: Biocompatibility: keratinocytes cultured on films, ATP (CellTiter-Glo) assay; type: cell-based; details: 4 and 24 h; cells on films or with soluble peptide (20 µg/mL)
Experimental: Cell Culture. Human dermal fibroblast cells (NDHF) (Lonza) were cultured with Dulbecco’s modified eagle’s medium (DMEM) (Sigma) supplemented with 10% (v/v) of fetal bovine serum (Gibco, Grand Island, NY, USA) and 1% (v/v) penicillin/streptomycin (Lonza). NDHF cells under passage number ten were used in all experiments. Human keratinocyte cell line (HaCaT cell line, CLS, Eppelheim, Germany) was cultured as recommended by the vendor. Briefly, HaCaT cells were cultivated using DMEM supplemented with 1% (v/v) penicillin and streptomycin (Invitrogen) and 10% (v/v) fetal bovine serum (FBS, Invitrogen) until 90% of confluence. For passage, HaCat cells were initially trypsinized and then scraped. The cells were sub-cultured at a ratio of 1:3 until achieving the number of cells required for the experiment.
Biocompatibility study. Keratinocytes (2×10^4 cells) were cultured on top of PU-Adhesive-LL37NP, PU-Adhesive or PU films and cultured for 4 and 24 h. […] Cell viability was measured using ATP assay. […]
In vitro cytotoxicity of PU-adhesive-LL37NP films. […] To evaluate the cytotoxicity of films, keratinocytes were cultured on the top of PU-adhesive-LL37NP, PU-adhesive and PU films for 4 and 24 h and then cell viability was evaluated by an ATP assay (FIG. 12A). […]

[4] = tested on: P.aeruginosa

SMILES: CC[C@H](C)[C@H](NC(=O)[C@H](CCCCN)NC(=O)[C@H](CCC(=O)O)NC(=O)[C@H](CCCCN)NC(=O)[C@H](CO)NC(=O)[C@H](CCCCN)NC(=O)[C@H](CCCNC(=N)N)NC(=O)[C@H](Cc1ccccc1)NC(=O)[C@H](Cc1ccccc1)NC(=O)[C@H](CC(=O)O)NC(=O)CNC(=O)[C@H](CC(C)C)NC(=O)[C@@H](N)CC(C)C)C(=O)NCC(=O)N[C@@H](CCCCN)C(=O)N[C@@H](CCC(=O)O)C(=O)N[C@@H](Cc1ccccc1)C(=O)N[C@@H](CCCCN)C(=O)N[C@@H](CCCNC(=N)N)C(=O)N[C@H](C(=O)N[C@H](C(=O)N[C@@H](CCC(N)=O)C(=O)N[C@@H](CCCNC(=N)N)C(=O)N[C@H](C(=O)N[C@@H](CCCCN)C(=O)N[C@@H](CC(=O)O)C(=O)N[C@@H](Cc1ccccc1)C(=O)N[C@@H](CC(C)C)C(=O)N[C@@H](CCCNC(=N)N)C(=O)N[C@@H](CC(N)=O)C(=O)N[C@@H](CC(C)C)C(=O)N[C@H](C(=O)N1CCC[C@H]1C(=O)N[C@@H](CCCNC(=N)N)C(=O)N[C@H](C(=O)N[C@@H](CCC(=O)O)C(=O)N[C@@H](CO)C(=O)N[C@@H](CS)C(=O)O)[C@@H](C)O)C(C)C)[C@@H](C)CC)C(C)C)[C@@H](C)CC [LL37 peptide]
- MIC ([1]; free peptide): up to 15 µg/mL
- MIC ([2]; free peptide): up to 15 µg/mL
- keratinocyte metabolism / cytotoxicity (ATP production) [3]: No statistic difference in keratinocyte metabolism
- MIC [4]: up to 15 µg/mL

SMILES: O=C(N[C@H](CO)[C@H](O)c1ccc([N+](=O)[O-])cc1)C(Cl)Cl [chloramphenicol]
- time to induce resistance ([1]; serial passages at sub-MIC): ≤ 3 days
- time to induce resistance ([2]; serial passages at sub-MIC): ≤ 3 days
